Laboratory results as given in patent US8309718B2, “4-pyrazolyl-N-arylpyrimidin-2-amines and 4-pyrazolyl-N-heteroarylpyrimidin-2-amines as janus kinase inhibitors” (Incyte Corporation, priority 2007, dated 2012).

Biological target: T1, human JAK2 (Homo sapiens, UniProt O60674)
T1 construct: JAK2 (a.a. 828-1132); His tag (N); made in house; host or cells: insect cells (baculovirus)
Experiment: In vitro JAK kinase assay (HTRF, phosphorylation of biotinylated peptide)
Format: biochemical
Conditions: catalytic domain a.a. 828-1132, 30 μM ATP, 500 nM peptide, room temperature 1 hr; read-out: JAK-2 IC50
Description: Compounds herein were tested for inhibitory activity of JAK targets according to the following in vitro assay described in Park et al, Analytical Biochemistry 1999, 269, 94-104. The catalytic domains of human JAK1 (a.a. 837-1142), JAK2 (a.a. 828-1132) and JAK3 (a.a. 781-1124) with an N-terminal His tag were expressed using baculovirus in insect cells and purified. The catalytic activity of JAK1, JAK2 or JAK3 was assayed by measuring the phosphorylation of a biotinylated peptide. The phosphorylated peptide was detected by homogenous time resolved fluorescence (HTRF). IC50s of compounds were measured for each kinase in the reactions that contain the enzyme, ATP and 500 nM peptide in 50 mM Tris (pH 7.8) buffer with 100 mM NaCl, 5 mM DTT, and 0.1 mg/mL (0.01%) BSA. The ATP concentration in the reactions was 90 μM for JAK1, 30 μM for Jak2 and 3 μM for JAK3. Reactions were carried out at room temperature for 1 hr and then stopped with 20 μL 45 mM EDTA, 300 nM SA-APC, 6 nM Eu-Py20 in assay buffer (Perkin Elmer, Boston, Mass.). Binding to the Europium labeled antibody took place for 40 minutes and HTRF signal was measured on a Fusion plate reader (Perkin Elmer, Boston, Mass.). Certain of the above compounds were tested according to this assay.

T1 sequence (O60674 828-1132): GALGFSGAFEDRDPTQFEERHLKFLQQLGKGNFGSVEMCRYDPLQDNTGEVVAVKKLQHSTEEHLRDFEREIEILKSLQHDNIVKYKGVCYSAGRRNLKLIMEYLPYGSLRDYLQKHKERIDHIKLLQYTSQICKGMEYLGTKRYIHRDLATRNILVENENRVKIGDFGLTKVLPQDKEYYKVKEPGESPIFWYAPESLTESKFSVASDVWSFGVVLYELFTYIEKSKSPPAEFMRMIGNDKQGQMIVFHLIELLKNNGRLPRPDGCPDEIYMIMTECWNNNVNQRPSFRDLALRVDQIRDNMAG

IC50, < 100 nM:
N#CCC(C1CCCC1)n1cc(-c2ccnc(Nc3ccc(C(=O)N[C@H]4CC[C@@H](O)CC4)cc3)n2)cn1 (mixture of isomers) [Example 223, 4-(4-(1-(2-cyano-1-cyclopentylethyl)-1H-pyrazol-4-yl)pyrimidin-2-ylamino)-N-(cis-4-hydroxycyclohexyl)benzamide]
N#CCC(C1CCCC1)n1cc(-c2ccnc(Nc3cccc(C(=O)N4CCN(c5ncccn5)CC4)c3)n2)cn1 (racemic) [Example 160, 3-cyclopentyl-3-(4-(2-(3-(4-(pyrimidin-2-yl)piperazine-1-carbonyl)phenylamino)pyrimidin-4-yl)-1H-pyrazol-1-yl)propanenitrile]
N#CCC(C1CCCC1)n1cc(-c2ccnc(Nc3ccc(C(=O)NC4CCN(c5ccccn5)C4)cc3)n2)cn1 (mixture of isomers) [Example 232, 4-(4-(1-(2-cyano-1-cyclopentylethyl)-1H-pyrazol-4-yl)pyrimidin-2-ylamino)-N-(1-(pyridin-2-yl)pyrrolidin-3-yl)benzamide]
N#CCC(C1CCCC1)n1cc(-c2ccnc(Nc3ccc(N4CCNCC4)cc3)n2)cn1 (racemic) [Example 41, 3-cyclopentyl-3-(4-(2-(4-(piperazin-1-yl)phenylamino)pyrimidin-4-yl)-1H-pyrazol-1-yl)propanenitrile]
COC1CCN(C(=O)c2ccc(Nc3nccc(-c4cnn(C(CC#N)C5CCCC5)c4)n3)cc2)CC1 (racemic) [Example 221, 3-cyclopentyl-3-(4-(2-(4-(4-methoxypiperidine-1-carbonyl)phenylamino)pyrimidin-4-yl)-1H-pyrazol-1-yl)propanenitrile]
N#CCC(C1CC1)n1cc(-c2ccnc(Nc3ccc(N4CCOCC4=O)cc3)n2)cn1 (racemic) [Example 180, 3-cyclopropyl-3-(4-(2-(4-(3-oxomorpholino)phenylamino)pyrimidin-4-yl)-1H-pyrazol-1-yl)propanenitrile]
CCS(=O)(=O)N1CC(CC#N)(n2cc(-c3ccnc(Nc4ccc(C(=O)N5CC[C@H](F)C5)cc4)n3)cn2)C1 [Example 283, (S)-2-(1-(ethylsulfonyl)-3-(4-(2-(4-(3-fluoropyrrolidine-1-carbonyl)phenylamino)pyrimidin-4-yl)-1H-pyrazol-1-yl)azetidin-3-yl)acetonitrile]
N#CCC1(n2cc(-c3ccnc(Nc4ccc(C(=O)N5CCC(O)CC5)cc4)n3)cn2)CC(C#N)C1 (single isomer, unassigned) [Example 301, 3-(cyanomethyl)-3-(4-(2-(4-(4-hydroxypiperidine-1-carbonyl)phenylamino)pyrimidin-4-yl)-1H-pyrazol-1-yl)cyclobutanecarbonitrile]
Cc1cnc(Nc2ccc(-n3cccn3)cc2)nc1-c1cnn(C(CC#N)C2CCCC2)c1 (racemic) [Example 71, 3-(4-(2-(4-(1H-pyrazol-1-yl)phenylamino)-5-methylpyrimidin-4-yl)-1H-pyrazol-1-yl)-3-cyclopentylpropanenitrile]
Cc1cnc(Nc2ccc(C(=O)O)cc2)nc1-c1cnn(C(CC#N)C2CCCC2)c1 (racemic) [Example 81, 4-(4-(1-(2-cyano-1-cyclopentylethyl)-1H-pyrazol-4-yl)-5-methylpyrimidin-2-ylamino)benzoic acid]
N#CCC(C1CC1)n1cc(-c2ccnc(Nc3ccc(C(=O)N4CC[C@@H](C#N)C4)cc3)n2)cn1 (mixture of isomers) [Example 264, (3R)-1-(4-(4-(1-(2-cyano-1-cyclopropylethyl)-1H-pyrazol-4-yl)pyrimidin-2-ylamino)benzoyl)pyrrolidine-3-carbonitrile]
N#CCC(C1CCOCC1)n1cc(-c2ccnc(Nc3ccc(C(=O)N4CCC(O)CC4)cc3)n2)cn1 (racemic) [Example 312, 3-{4-[2-({4-[(4-hydroxypiperidin-1-yl)carbonyl]phenyl}amino)pyrimidin-4-yl]-1H-pyrazol-1-yl}-3-(tetrahydro-2H-pyran-4-yl)propanenitrile]
N#CCC(C1CCCC1)n1cc(-c2ccnc(Nc3ccc(C(=O)N4C5CC6CC4CC(C5)O6)cc3)n2)cn1 (racemic) [Example 216, 3-cyclopentyl-3-(4-(2-(4-(2-oxa-6-azatricyclo[3.3.1.1(3,7)]dec-6-ylcarbonyl)phenyl)aminopyrimidin-4-yl)-1H-pyrazol-1-yl)propanenitrile]
N#CCC(C1CCCC1)n1cc(-c2ccnc(Nc3cccc(C(=O)N4CCC(O)CC4)c3)n2)cn1 (racemic) [Example 111, 3-cyclopentyl-3-(4-(2-(3-(4-hydroxypiperidine-1-carbonyl)phenylamino)pyrimidin-4-yl)-1H-pyrazol-1-yl)propanenitrile]
N#CCC(C1CCOCC1)n1cc(-c2ccnc(Nc3ccc(N4CCOCC4)cc3)n2)cn1 (racemic) [Example 308, 3-(4-{2-[(4-morpholin-4-ylphenyl)amino]pyrimidin-4-yl}-1H-pyrazol-1-yl)-3-(tetrahydro-2H-pyran-4-yl)propanenitrile]
N#CCC(C1CCOCC1)n1cc(-c2ccnc(Nc3ccc(C(=O)N4CCOCC4)cc3)n2)cn1 (racemic) [Example 311, 3-[4-(2-{[4-(morpholin-4-ylcarbonyl)phenyl]amino}pyrimidin-4-yl)-1H-pyrazol-1-yl]-3-(tetrahydro-2H-pyran-4-yl)propanenitrile]
N#CCC(CC1CCN(S(=O)(=O)C2CC2)CC1)n1cc(-c2ccnc(Nc3ccc(N4CCOCC4=O)cc3)n2)cn1 (racemic) [Example 97, 4-(1-(cyclopropylsulfonyl)piperidin-4-yl)-3-(4-(2-(4-(3-oxomorpholino)phenylamino)pyrimidin-4-yl)-1H-pyrazol-1-yl)butanenitrile]
N#CCC(C1CC1)n1cc(-c2ccnc(Nc3ccc(C(=O)N4CCC4)cc3)n2)cn1 (racemic) [Example 261, 3-(4-(2-(4-(azetidine-1-carbonyl)phenylamino)pyrimidin-4-yl)-1H-pyrazol-1-yl)-3-cyclopropylpropanenitrile]
CC[C@H](NC(=O)c1ccc(Nc2nccc(-c3cnn(C(CC#N)C4CCCC4)c3)n2)cc1)C(=O)N(C)C (mixture of isomers) [Example 235, 4-(4-(1-(2-cyano-1-cyclopentylethyl)-1H-pyrazol-4-yl)pyrimidin-2-ylamino)-N—((S)-1-(dimethylamino)-1-oxobutan-2-yl)benzamide]
N#CCC(C1CCCC1)n1cc(-c2ccnc(Nc3ccc(N4CCOCC4)cc3)n2)cn1 (racemic) [Example 35, 3-cyclopentyl-3-(4-(2-(4-morpholinophenylamino)pyrimidin-4-yl)-1H-pyrazol-1-yl)propanenitrile]
COc1cnc(Nc2ccc(C(=O)N3CCCC3)cc2)nc1-c1cnn(C(CC#N)C2CCCC2)c1 (racemic) [Example 303, 3-cyclopentyl-3-(4-(5-methoxy-2-(4-(pyrrolidine-1-carbonyl)phenylamino)pyrimidin-4-yl)-1H-pyrazol-1-yl)propanenitrile]
